Source: paper PMC12187371 (Neuro-Oncology, 2024)

Legend:
HEI-193 cells [1] = experiment: HEI-193 cell viability; type: cell-based, human; conditions: WST-8, 3 days
[2] = test system: NF2-associated vestibular schwannomas; conditions: progressive NF2-associated vestibular schwannomas; cited from earlier work
normal human fibroblasts [3] = experiment: Apoptosis markers in normal human fibroblasts; type: cell-based; conditions: 1 day
normal human fibroblasts [4] = experiment: Normal human fibroblast viability; type: cell-based; conditions: WST-8, 3 days
HEI-193 cells [5] = experiment: Western blotting of differentiation and cell cycle markers in HEI-193 cells; type: cell-based, human; conditions: 7 days

Compound	proliferation of HEI-193 cells (HEI-193 cells [1])	patients with improved hearing and reduced tumor volume [2]	cytochrome c release from mitochondria (normal human fibroblasts [3])	toxicity in human normal fibroblasts (normal human fibroblasts [4])	expression of SOX10, MBP, p21 and p27 (HEI-193 cells [5])	expression of stem cell factor SOX2 (HEI-193 cells [5])
Cn1cnc2c(F)c(Nc3ccc(Br)cc3Cl)c(C(=O)NOCCO)cc21 [Selumetinib]	did not exhibit any effect	–	–	–	–	–
Bevacizumab	–	about 40 % of patients	–	–	–	–
COc1cc(N2CCC(N3CCN(C)CC3)CC2)ccc1Nc1ncc(Cl)c(Nc2ccccc2P(C)(C)=O)n1 [Brigatinib]	dose-dependently reduced	–	induced cytochrome c release	showed toxicity	decreased the expression of all these markers	decreased the expression of all these markers
